Assay results from article PMC8167858, “Crystal structure of a novel homodimeric L‐ribulose 3‐epimerase from Methylomonus sp” (FEBS Open Bio, 2021).
One block for each molecule: values may come before it.

Legend:
[1] = molecular target: T1, his_MetLRE (Methylomonas sp. DH-1, UniProt A0A172U6X0); assay: X-ray crystal structure, […] Å; format: binding; conditions: 0.1 M HEPES pH 7.5, PEG 8000, 8% ethylene glycol
T1 construct: gene AYM39_05640; full length 286 aa, N-terminal His-tag from pET15b (kept), E. coli BL21(DE3), homodimer
T1 sequence (A0A172U6X0 1-286): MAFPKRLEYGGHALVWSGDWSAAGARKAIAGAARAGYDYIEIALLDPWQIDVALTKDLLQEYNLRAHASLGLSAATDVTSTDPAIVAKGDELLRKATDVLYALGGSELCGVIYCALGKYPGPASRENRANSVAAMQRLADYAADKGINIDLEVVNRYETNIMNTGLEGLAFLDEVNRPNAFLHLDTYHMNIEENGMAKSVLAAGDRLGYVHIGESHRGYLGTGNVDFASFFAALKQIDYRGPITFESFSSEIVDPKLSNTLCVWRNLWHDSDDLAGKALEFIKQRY

[2] = molecular target: T2, MetLRE (MetLRE_his) (Methylomonas sp. DH-1, UniProt A0A172U6X0); assay: thermal shift assay (SYPRO Orange); format: binding; conditions: melting temperature, not a shift: reference with Mn alone Tm1_Mn 72.5 ± 0.03 °C; 4 mM D-allulose, 0.8 mM MnCl2, 40 mM Tris/HCl pH 7.6; two-step unfolding, first transition
T2 construct: gene AYM39_05640
T2 sequence (A0A172U6X0 1-286): T1 sequence (A0A172U6X0 1-286)
From the text: thermal shift assay (SYPRO Orange) on MetLRE (MetLRE_his) | in the presence of Mn and D‐allulose (cyan line)

[3] = molecular target: T2, MetLRE (MetLRE_his); assay: X-ray crystal structure, […] Å; format: binding; conditions: crystal soaked in 15% (w/v) D-fructose; catalytic site with Mn2+; second site: beta-D-fructopyranose on surface near C terminus of Mol-A
[4] = molecular target: T3, his_MetLRElong2 (Methylomonas sp. DH-1, UniProt A0A172U6X0, Y9I/Y37F/INS286TAIKTIELH/Y286L, form not given); assay: X-ray crystal structure, […] Å; format: binding; conditions: 0.1 M HEPES pH 7.5, PEG 8000, 8% ethylene glycol
T3 construct: gene AYM39_05640; full length with Y9I, Y37F, Y286L and nine extra residues TAIKTIELH added after residue 286 at the C terminus; N-terminal His-tag from pET15b (kept), E. coli BL21(DE3), homodimer

[5] = molecular target: T2, MetLRE (MetLRE_his); assay: X-ray crystal structure, […] Å; format: binding
[6] = molecular target: the molecule itself; assay: crystal structure; his_MetLRE (with D-allulose) and his_MetLRElong2 (with D-fructose); reservoir 0.1 M HEPES pH 7.5, 10% PEG 8000, 8% ethylene glycol; space group P1, six and eight molecules in an asymmetric unit; symmetry operation and PISA analysis
[7] = substrate: O=C(CO)[C@@H](O)[C@@H](O)CO; assay: epimerization, product by HPLC; format: biochemical, Methylomonas sp. DH-1; conditions: 50 mM Tris/HCl pH 7.5, 1 mM MnCl2, 70 °C (conditions of the specificity assay)
[8] = molecular target: the molecule itself; assay: crystal structure; MetLRE_his crystals, alone and soaked with D-fructose, D-allulose or L-tagatose; reservoir 0.2 M MgCl2, 0.1 M Tris/HCl pH 8.5, 25% PEG3350, 293 K; two molecules in an asymmetric unit

Tm1_MnA [2]: 78.5 ± 0.1 °C
Molecule: OCC1(O)OC[C@@H](O)[C@@H](O)[C@H]1O (stereo partly drawn) [D-allulose]
X-ray crystal structure, 2.05 Å [1]: His_MetLRE in complex with D‐allulose was obtained in the triclinic space group P1

Molecule: OCC1(O)OC[C@@H](O)[C@@H](O)[C@@H]1O (stereo partly drawn) [D-fructose]
X-ray crystal structure, 1.80 Å [3]: MetLRE_his in complex with D‐fructose was crystallized in the orthorhombic space group
X-ray crystal structure, 1.58 Å [4]: the crystal structure of his_MetLRElong2 in complex with D‐fructose was determined

Molecule: OCC1(O)OC[C@H](O)[C@@H](O)[C@H]1O (stereo partly drawn) [L-tagatose]
X-ray crystal structure, 1.70 Å ([5]; crystal soaked in 15% (w/v) L-tagatose, catalytic site of Mol-B with Mn2+, second site: alpha-L-tagatopyranose on surface of Mol-B): The bound L‐tagatose was found in the catalytic site of Mol‐B

Molecule: OCC1(O)OC[C@H](O)[C@@H](O)[C@@H]1O (stereo partly drawn) [L-sorbose]
X-ray crystal structure, 1.70 Å ([5]; formed from soaked L-tagatose in crystal, catalytic site of Mol-A with Mn2+): L‐sorbose (C3 epimer of L‐tagatose) was bound in the catalytic site

B1: N-terminal His-tagged MetLRElong2 (his_MetLRE with nine additional residues TAIKTIELH at the C terminus and three mutations Y9I, Y37F, Y286L) (enzyme, Methylomonas sp. DH-1)
chain: MAFPKRLEIGGHALVWSGDWSAAGARKAIAGAARAGFDYIEIALLDPWQIDVALTKDLLQEYNLRAHASLGLSAATDVTSTDPAIVAKGDELLRKATDVLYALGGSELCGVIYCALGKYPGPASRENRANSVAAMQRLADYAADKGINIDLEVVNRYETNIMNTGLEGLAFLDEVNRPNAFLHLDTYHMNIEENGMAKSVLAAGDRLGYVHIGESHRGYLGTGNVDFASFFAALKQIDYRGPITFESFSSEIVDPKLSNTLCVWRNLWHDSDDLAGKALEFIKQRLTAIKTIELH
notes: L-ribulose 3-epimerase from Methylomonas sp; DH-1, NCBI WP_064020855.1, 286 a.a., with three mutations; nine additional residues at the C terminus, chosen on the tetramer form of AgDAE; source: E. coli BL21(DE3) (pET15b, plasmid pETMetLRElong2), purified (HisTrap HP); not shown: His tag, N-terminal, kept
stoichiometry N [6]: 2

B2: MetLRE (MetLRE_his) (Methylomonas sp. DH-1) (protein)
chain: T1 sequence (A0A172U6X0 1-286)
Km [7]: 22.4 ± 3.4 mM
kcat [7]: 82.05 ± 5.77 s⁻¹

B3: C-terminal His-tagged L-ribulose 3-epimerase from Methylomonas sp. DH-1 (MetLRE_his) (enzyme, UniProt A0A172U6X0 1-286, looked up)
chain: T1 sequence (A0A172U6X0 1-286)
notes: L-ribulose 3-epimerase (putative sugar isomerase/epimerase) from Methylomonas sp; DH-1, NCBI WP_064020855.1, 286 a.a; synthesized gene amplified from the start codon to the last codon (Y286), then a linker beginning at Gly287 and the His tag; Linker and tag follow Y286: Gly287 and Ser288 are in the linker; also called putative sugar isomerase/epimerase; source: E. coli JM109 (pQE60, plasmid …)
stoichiometry N [8]: 2

B4: N-terminal His-tagged L-ribulose 3-epimerase from Methylomonas sp. DH-1 (his_MetLRE) (enzyme, UniProt A0A172U6X0 1-286, looked up)
chain: T1 sequence (A0A172U6X0 1-286)
notes: L-ribulose 3-epimerase from Methylomonas sp; DH-1, NCBI WP_064020855.1, 286 a.a; primers from the start codon to the stop codon; N-terminal tag and additional residues come from pET15b; source: E. coli BL21(DE3) (pET15b, plasmid pETMetLRE), purified (HisTrap HP); not shown: His tag, N-terminal, kept
stoichiometry N [6]: 2
